In PMC5513037, “Examining the influence of specificity ligands and ATP-competitive ligands on the overall effectiveness of bivalent kinase inhibitors” (Proteome Science, 2017):

Assays:
Experiment in all cases: KAM-matrix competition in K562 lysate;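 for 0.001 uM KAM: median log10 fold change of treatment over DMSO control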;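 for 0.01 uM KAM: median log10 fold change of treatment over DMSO control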;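 for 0.1 uM KAM: median log10 fold change of treatment over DMSO control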;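 for 1 uM KAM: median log10 fold change of treatment over DMSO control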;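 for 10 uM KAM: median log10 fold change of treatment over DMSO control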
Format in all cases: binding
TNK2 = biological target: T1, TNK2 (Homo sapiens, UniProt Q07912);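 for 0.001 uM KAM: median log10 fold change of treatment over DMSO control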;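 for 0.01 uM KAM: median log10 fold change of treatment over DMSO control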;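 for 0.1 uM KAM: median log10 fold change of treatment over DMSO control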;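 for 1 uM KAM: median log10 fold change of treatment over DMSO control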;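 for 10 uM KAM: median log10 fold change of treatment over DMSO control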
T1 construct: endogenous in cells; host or cells: K562
T1 sequence (Q07912 whole entry): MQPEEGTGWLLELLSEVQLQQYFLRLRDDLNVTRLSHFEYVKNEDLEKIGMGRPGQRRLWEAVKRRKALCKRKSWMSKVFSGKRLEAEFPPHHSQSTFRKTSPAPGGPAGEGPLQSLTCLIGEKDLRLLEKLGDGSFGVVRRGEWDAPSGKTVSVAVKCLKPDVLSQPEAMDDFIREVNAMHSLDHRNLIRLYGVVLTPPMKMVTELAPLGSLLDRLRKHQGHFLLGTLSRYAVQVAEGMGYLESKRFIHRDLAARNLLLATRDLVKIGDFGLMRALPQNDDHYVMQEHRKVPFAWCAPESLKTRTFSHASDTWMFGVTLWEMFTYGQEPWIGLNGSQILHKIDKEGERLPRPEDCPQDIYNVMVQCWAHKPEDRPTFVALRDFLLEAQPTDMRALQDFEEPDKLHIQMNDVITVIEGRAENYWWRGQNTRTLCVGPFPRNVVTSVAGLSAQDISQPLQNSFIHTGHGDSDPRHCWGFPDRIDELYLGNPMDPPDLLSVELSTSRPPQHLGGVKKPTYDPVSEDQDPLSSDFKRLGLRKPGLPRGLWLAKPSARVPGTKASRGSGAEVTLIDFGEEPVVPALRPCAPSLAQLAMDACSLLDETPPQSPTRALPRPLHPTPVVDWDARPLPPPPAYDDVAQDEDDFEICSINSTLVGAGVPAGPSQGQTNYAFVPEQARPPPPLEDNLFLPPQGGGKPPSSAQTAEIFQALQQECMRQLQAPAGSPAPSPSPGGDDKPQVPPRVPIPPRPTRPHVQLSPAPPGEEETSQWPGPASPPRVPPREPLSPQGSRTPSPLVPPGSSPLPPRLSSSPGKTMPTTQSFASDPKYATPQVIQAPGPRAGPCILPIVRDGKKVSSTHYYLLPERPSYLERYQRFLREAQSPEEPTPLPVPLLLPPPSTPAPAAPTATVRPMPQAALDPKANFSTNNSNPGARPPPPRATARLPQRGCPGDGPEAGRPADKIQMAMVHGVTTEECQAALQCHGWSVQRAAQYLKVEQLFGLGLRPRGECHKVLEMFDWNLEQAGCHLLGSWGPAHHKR
Experimental: (§1) Supplement 12953_2017_125_MOESM1_ESM.zip/MS_Supp Info.xlsx, sheet "KAM" | column: 10 uM KAM; 1 uM KAM; 0.1 uM KAM; 0.01 uM KAM; 0.001 uM KAM; RB50

UHMK1 = biological target: T2, UHMK1 (Homo sapiens, UniProt Q8TAS1);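 for 0.001 uM KAM: median log10 fold change of treatment over DMSO control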;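 for 0.01 uM KAM: median log10 fold change of treatment over DMSO control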;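 for 0.1 uM KAM: median log10 fold change of treatment over DMSO control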;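 for 1 uM KAM: median log10 fold change of treatment over DMSO control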;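 for 10 uM KAM: median log10 fold change of treatment over DMSO control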
T2 construct: endogenous in cells; host or cells: K562
T2 sequence (Q8TAS1 1-419): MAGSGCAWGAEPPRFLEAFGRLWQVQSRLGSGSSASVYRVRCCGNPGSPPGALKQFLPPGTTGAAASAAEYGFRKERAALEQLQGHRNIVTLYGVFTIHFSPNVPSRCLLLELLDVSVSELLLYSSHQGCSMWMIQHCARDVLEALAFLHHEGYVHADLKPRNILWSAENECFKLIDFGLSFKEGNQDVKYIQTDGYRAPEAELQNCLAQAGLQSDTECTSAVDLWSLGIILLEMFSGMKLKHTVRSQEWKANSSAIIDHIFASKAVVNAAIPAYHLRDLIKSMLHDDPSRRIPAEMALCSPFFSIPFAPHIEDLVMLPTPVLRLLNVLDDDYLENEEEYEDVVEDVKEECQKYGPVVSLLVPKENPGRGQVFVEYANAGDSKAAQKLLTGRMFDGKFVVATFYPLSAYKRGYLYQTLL
Experimental: as §1

MAP3K2 = biological target: T3, MAP3K2 (Homo sapiens, UniProt Q9Y2U5)
T3 construct: endogenous in cells; host or cells: K562
T3 sequence (Q9Y2U5 1-619): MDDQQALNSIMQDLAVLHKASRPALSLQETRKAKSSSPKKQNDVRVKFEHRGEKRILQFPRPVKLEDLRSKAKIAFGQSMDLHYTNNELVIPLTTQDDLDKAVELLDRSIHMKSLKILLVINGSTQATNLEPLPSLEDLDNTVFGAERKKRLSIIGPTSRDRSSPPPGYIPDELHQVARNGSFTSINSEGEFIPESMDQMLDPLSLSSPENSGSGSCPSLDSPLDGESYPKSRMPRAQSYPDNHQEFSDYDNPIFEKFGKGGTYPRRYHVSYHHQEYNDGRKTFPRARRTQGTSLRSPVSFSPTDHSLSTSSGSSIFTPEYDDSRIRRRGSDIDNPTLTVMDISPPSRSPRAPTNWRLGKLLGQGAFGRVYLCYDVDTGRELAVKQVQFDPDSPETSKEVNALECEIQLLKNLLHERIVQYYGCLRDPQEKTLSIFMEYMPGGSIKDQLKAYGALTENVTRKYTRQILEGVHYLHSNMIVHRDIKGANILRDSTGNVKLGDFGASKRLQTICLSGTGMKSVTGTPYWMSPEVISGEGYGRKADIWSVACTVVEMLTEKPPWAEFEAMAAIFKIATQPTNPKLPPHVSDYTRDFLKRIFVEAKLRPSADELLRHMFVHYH
Experimental: as §1

MAST3 = biological target: T4, MAST3 (Homo sapiens, UniProt O60307)
T4 construct: endogenous in cells; host or cells: K562 cells (lysate)
T4 sequence (O60307 whole entry): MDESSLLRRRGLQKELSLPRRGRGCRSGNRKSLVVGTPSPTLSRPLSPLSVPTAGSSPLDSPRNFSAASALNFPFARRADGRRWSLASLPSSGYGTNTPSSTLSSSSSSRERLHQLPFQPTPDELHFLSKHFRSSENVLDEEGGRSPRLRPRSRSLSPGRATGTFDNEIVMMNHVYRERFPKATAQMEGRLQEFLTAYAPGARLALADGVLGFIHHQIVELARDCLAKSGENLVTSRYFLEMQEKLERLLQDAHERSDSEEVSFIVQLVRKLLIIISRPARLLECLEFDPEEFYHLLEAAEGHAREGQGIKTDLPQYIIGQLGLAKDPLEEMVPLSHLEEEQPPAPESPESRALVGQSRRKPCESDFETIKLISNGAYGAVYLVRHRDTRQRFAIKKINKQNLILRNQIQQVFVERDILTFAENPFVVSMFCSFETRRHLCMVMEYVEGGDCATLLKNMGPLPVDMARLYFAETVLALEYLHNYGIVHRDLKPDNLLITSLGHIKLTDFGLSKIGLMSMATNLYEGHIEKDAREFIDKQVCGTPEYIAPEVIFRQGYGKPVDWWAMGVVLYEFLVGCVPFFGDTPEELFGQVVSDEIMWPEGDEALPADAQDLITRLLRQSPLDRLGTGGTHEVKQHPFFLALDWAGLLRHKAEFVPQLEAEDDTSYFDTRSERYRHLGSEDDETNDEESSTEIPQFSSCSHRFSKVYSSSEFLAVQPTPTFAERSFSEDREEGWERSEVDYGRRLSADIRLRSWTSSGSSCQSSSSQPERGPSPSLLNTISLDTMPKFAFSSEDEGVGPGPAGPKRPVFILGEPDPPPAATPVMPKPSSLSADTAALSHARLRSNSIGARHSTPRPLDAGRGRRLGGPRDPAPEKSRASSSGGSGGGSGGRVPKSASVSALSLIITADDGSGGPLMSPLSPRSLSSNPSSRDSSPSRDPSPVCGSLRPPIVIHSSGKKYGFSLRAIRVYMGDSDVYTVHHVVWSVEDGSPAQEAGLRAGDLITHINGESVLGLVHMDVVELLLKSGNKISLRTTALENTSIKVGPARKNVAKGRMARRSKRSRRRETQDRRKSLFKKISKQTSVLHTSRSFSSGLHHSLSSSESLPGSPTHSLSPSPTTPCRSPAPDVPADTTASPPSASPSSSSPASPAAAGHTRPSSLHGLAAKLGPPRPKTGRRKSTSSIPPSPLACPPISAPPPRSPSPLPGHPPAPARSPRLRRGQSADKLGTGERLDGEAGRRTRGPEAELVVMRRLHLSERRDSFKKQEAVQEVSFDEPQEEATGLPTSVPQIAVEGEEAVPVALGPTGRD
Experimental: as §1

EPHB6 = biological target: T5, EPHB6 (Homo sapiens, UniProt O15197)
T5 construct: endogenous in cells; host or cells: K562
T5 sequence (O15197 32-1021): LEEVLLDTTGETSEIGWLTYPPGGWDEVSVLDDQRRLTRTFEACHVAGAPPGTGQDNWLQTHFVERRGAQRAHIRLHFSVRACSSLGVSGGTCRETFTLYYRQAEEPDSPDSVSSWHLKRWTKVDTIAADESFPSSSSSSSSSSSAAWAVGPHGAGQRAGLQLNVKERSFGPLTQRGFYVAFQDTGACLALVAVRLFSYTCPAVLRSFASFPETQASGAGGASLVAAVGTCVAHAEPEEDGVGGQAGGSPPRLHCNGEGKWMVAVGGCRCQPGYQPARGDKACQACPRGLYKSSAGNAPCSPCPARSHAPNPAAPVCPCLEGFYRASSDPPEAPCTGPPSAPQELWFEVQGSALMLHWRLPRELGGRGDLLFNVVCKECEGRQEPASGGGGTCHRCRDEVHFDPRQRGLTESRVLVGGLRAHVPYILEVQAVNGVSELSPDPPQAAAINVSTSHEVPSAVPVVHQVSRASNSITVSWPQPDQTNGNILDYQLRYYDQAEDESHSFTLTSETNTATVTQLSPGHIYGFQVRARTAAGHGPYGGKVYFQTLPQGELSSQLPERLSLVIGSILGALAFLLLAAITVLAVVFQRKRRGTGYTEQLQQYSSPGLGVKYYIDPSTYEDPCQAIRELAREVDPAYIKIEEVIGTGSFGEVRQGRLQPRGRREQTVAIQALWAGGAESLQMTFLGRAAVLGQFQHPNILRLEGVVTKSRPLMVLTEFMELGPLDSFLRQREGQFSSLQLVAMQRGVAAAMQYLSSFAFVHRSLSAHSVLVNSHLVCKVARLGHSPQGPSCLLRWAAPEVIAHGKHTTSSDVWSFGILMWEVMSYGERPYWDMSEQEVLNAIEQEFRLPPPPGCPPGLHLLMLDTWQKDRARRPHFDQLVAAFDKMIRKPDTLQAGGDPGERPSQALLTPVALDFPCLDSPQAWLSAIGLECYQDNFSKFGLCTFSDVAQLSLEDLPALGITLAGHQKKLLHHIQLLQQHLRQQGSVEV
Experimental: as §1

[1] = KAM 0.001-10 uM, read-out: RB50 (the source's name)
[2] = read-out: RB50 (the source's name)

N#CCc1ccc(Nc2nc(NCCCN)cc(Nc3cc(C4CC4)[nH]n3)n2)cc1 [KAM]
IC50 (TNK2; [1]): > 10 µM | 0.001 uM KAM (TNK2; relative to 0 uM KAM = 0): 0.001973 | 0.01 uM KAM (TNK2; relative to 0 uM KAM = 0): -0.007052 | 0.1 uM KAM (TNK2; relative to 0 uM KAM = 0): -0.06006 | 1 uM KAM (TNK2; relative to 0 uM KAM = 0): -0.2026 | 10 uM KAM (TNK2; relative to 0 uM KAM = 0): -0.2086 | IC50 (UHMK1; [1]): > 10 µM | 0.001 uM KAM (UHMK1; relative to 0 uM KAM = 0): -0.05175 | 0.01 uM KAM (UHMK1; relative to 0 uM KAM = 0): -0.019 | 0.1 uM KAM (UHMK1; relative to 0 uM KAM = 0): 0.009765 | 1 uM KAM (UHMK1; relative to 0 uM KAM = 0): -0.08212 | 10 uM KAM (UHMK1; relative to 0 uM KAM = 0): -0.08774 | median Log10 fold change (MAP3K2; 0.001 uM KAM): -0.0298 | median Log10 fold change (MAP3K2; 0.01 uM KAM): 0.004839 | median Log10 fold change (MAP3K2; 0.1 uM KAM): -0.103 | median Log10 fold change (MAP3K2; 1 uM KAM): -0.3096 | median Log10 fold change (MAP3K2; 10 uM KAM): -0.4027 | IC50 (MAP3K2; [2]): 1.33 µM | median Log10 fold change (MAST3; 0.001 uM KAM): -0.04433 | median Log10 fold change (MAST3; 0.01 uM KAM): -0.01527 | median Log10 fold change (MAST3; 0.1 uM KAM): -0.1684 | median Log10 fold change (MAST3; 1 uM KAM): -0.3441 | median Log10 fold change (MAST3; 10 uM KAM): -0.4667 | IC50 (MAST3; [2]): 0.784 µM | median Log10 fold change (EPHB6; 0.001 uM KAM): -0.01655 | median Log10 fold change (EPHB6; 0.01 uM KAM): -0.02112 | median Log10 fold change (EPHB6; 0.1 uM KAM): -0.1129 | median Log10 fold change (EPHB6; 1 uM KAM): -0.2258 | median Log10 fold change (EPHB6; 10 uM KAM): -0.3985 | IC50 (EPHB6; [2]): 2.51 µM
